# Results reported in ChEMBL document CHEMBL3885881, “DrugMatrix”.
# Organism: Rattus norvegicus
# Assay: DrugMatrix - Regimen: Daily Repeat
# Assay type: toxicity, organism-based, Sprague-Dawley
# Parameters: regimen Daily Repeat, gender Male, age 6-8 weeks
# Settings: in vivo, iv, vehicle 100 % SALINE; for ABSOLUTE BASOPHIL / ABSOLUTE EOSINOPHIL / ABSOLUTE LYMPHOCYTE / ABSOLUTE MONOCYTE / ABSOLUTE SEGMENTED NEUTROPHIL / BASOPHIL / EOSINOPHIL / ERYTHROCYTE COUNT / HEMATOCRIT / HEMOGLOBIN / LYMPHOCYTE / MEAN CORPUSCULAR HEMOGLOBIN / MEAN CORPUSCULAR HEMOGLOBIN CONCENTRATION / MONOCYTE / NEUTROPHIL / NUCLEATED RED BLOOD CELLS / PLATELET COUNT: tissue Blood; for ALANINE AMINOTRANSFERASE / ALBUMIN / ALKALINE PHOSPHATASE / ASPARTATE AMINOTRANSFERASE / BLOOD UREA NITROGEN / CARBON DIOXIDE / CHLORIDE / CHOLESTEROL / CREATINE PHOSPHOKINASE / CREATININE / GLUCOSE / LIPASE / PHOSPHORUS / POTASSIUM / SODIUM / TOTAL BILIRUBIN / TOTAL PROTEIN / URIC ACID: tissue Plasma
# [1] = 0 mg/kg, 72 h, dose level Control, time 3 day
# [2] = 0 mg/kg, 120 h, dose level Control, time 5 day
# [3] = 5 mg/kg, 72 h, dose level High, time 3 day
smiles,measurement,setting,value
CCc1c2c(nc3ccc(OC(=O)N4CCC(N5CCCCC5)CC4)cc13)-c1cc3c(c(=O)n1C2)COC(=O)[C@]3(O)CC [IRINOTECAN],ABSOLUTE BASOPHIL,[1],0 CELLS/uL
same,ABSOLUTE EOSINOPHIL,[1],23.17 CELLS/uL
same,ABSOLUTE LYMPHOCYTE,[1],12448.83 CELLS/uL
same,ABSOLUTE MONOCYTE,[1],259.5 CELLS/uL
same,ABSOLUTE SEGMENTED NEUTROPHIL,[1],1635.17 CELLS/uL
same,BASOPHIL,[1],0%
same,EOSINOPHIL,[1],0.17%
same,ERYTHROCYTE COUNT,[1],5.35 x10E6/uL
same,HEMATOCRIT,[1],34.85%
same,HEMOGLOBIN,[1],13.72 G/DL
same,LYMPHOCYTE,[1],86.5%
same,MEAN CORPUSCULAR HEMOGLOBIN,[1],25.67 pg
same,MEAN CORPUSCULAR HEMOGLOBIN CONCENTRATION,[1],39.38 G/DL
same,MONOCYTE,[1],1.83%
same,NEUTROPHIL,[1],11.5%
same,NUCLEATED RED BLOOD CELLS,[1],0 /100WBC
same,PLATELET COUNT,[1],1248.67 x10E3/uL
same,ALANINE AMINOTRANSFERASE,[1],56.5 u/L
same,ALBUMIN,[1],4.27 G/DL
same,ALKALINE PHOSPHATASE,[1],334 u/L
same,ASPARTATE AMINOTRANSFERASE,[1],85.5 u/L
same,BLOOD UREA NITROGEN,[1],16.33 mg/dL
same,CARBON DIOXIDE,[1],26.5 mmol/L
same,CHLORIDE,[1],100.17 MEQ/L
same,CHOLESTEROL,[1],70.33 mg/dL
same,CREATINE PHOSPHOKINASE,[1],339.5 u/L
same,CREATININE,[1],0.18 mg/dL
same,GLUCOSE,[1],155.17 mg/dL
same,LIPASE,[1],9.5 u/L
same,PHOSPHORUS,[1],13.55 mg/dL
same,POTASSIUM,[1],6.68 MEQ/L
same,SODIUM,[1],143.87 MEQ/L
same,TOTAL BILIRUBIN,[1],0.2 mg/dL
same,TOTAL PROTEIN,[1],5.98 G/DL
same,URIC ACID,[1],1.53 mg/dL
same,ABSOLUTE BASOPHIL,[2],0 CELLS/uL
same,ABSOLUTE EOSINOPHIL,[2],16.17 CELLS/uL
same,ABSOLUTE LYMPHOCYTE,[2],10653.67 CELLS/uL
same,ABSOLUTE MONOCYTE,[2],17.17 CELLS/uL
same,ABSOLUTE SEGMENTED NEUTROPHIL,[2],746.33 CELLS/uL
same,BASOPHIL,[2],0%
same,EOSINOPHIL,[2],0.17%
same,ERYTHROCYTE COUNT,[2],5.88 x10E6/uL
same,HEMATOCRIT,[2],36.68%
same,HEMOGLOBIN,[2],14.6 G/DL
same,LYMPHOCYTE,[2],91.83%
same,MEAN CORPUSCULAR HEMOGLOBIN,[2],24.85 pg
same,MEAN CORPUSCULAR HEMOGLOBIN CONCENTRATION,[2],39.8 G/DL
same,MONOCYTE,[2],0.17%
same,NEUTROPHIL,[2],7.83%
same,NUCLEATED RED BLOOD CELLS,[2],0 /100WBC
same,PLATELET COUNT,[2],1219.5 x10E3/uL
same,ALANINE AMINOTRANSFERASE,[2],45.5 u/L
same,ALBUMIN,[2],4.23 G/DL
same,ALKALINE PHOSPHATASE,[2],330.17 u/L
same,ASPARTATE AMINOTRANSFERASE,[2],93.33 u/L
same,BLOOD UREA NITROGEN,[2],18 mg/dL
same,CARBON DIOXIDE,[2],25.5 mmol/L
same,CHLORIDE,[2],96.33 MEQ/L
same,CHOLESTEROL,[2],73.5 mg/dL
same,CREATINE PHOSPHOKINASE,[2],434 u/L
same,CREATININE,[2],0.2 mg/dL
same,GLUCOSE,[2],148.83 mg/dL
same,LIPASE,[2],10 u/L
same,PHOSPHORUS,[2],12.63 mg/dL
same,POTASSIUM,[2],6.66 MEQ/L
same,SODIUM,[2],139.78 MEQ/L
same,TOTAL BILIRUBIN,[2],0.15 mg/dL
same,TOTAL PROTEIN,[2],6.1 G/DL
same,URIC ACID,[2],2.02 mg/dL
same,ABSOLUTE BASOPHIL,[3],0 CELLS/uL
same,ABSOLUTE EOSINOPHIL,[3],80.67 CELLS/uL
same,ABSOLUTE LYMPHOCYTE,[3],9024 CELLS/uL
same,ABSOLUTE MONOCYTE,[3],170 CELLS/uL
same,ABSOLUTE SEGMENTED NEUTROPHIL,[3],658.67 CELLS/uL
same,BASOPHIL,[3],0%
same,EOSINOPHIL,[3],0.67%
same,ERYTHROCYTE COUNT,[3],5.4 x10E6/uL
same,HEMATOCRIT,[3],34.93%
same,HEMOGLOBIN,[3],13.9 G/DL
same,LYMPHOCYTE,[3],90.67%
same,MEAN CORPUSCULAR HEMOGLOBIN,[3],25.73 pg
same,MEAN CORPUSCULAR HEMOGLOBIN CONCENTRATION,[3],39.77 G/DL
same,MONOCYTE,[3],1.67%
same,NEUTROPHIL,[3],7%
same,NUCLEATED RED BLOOD CELLS,[3],0 /100WBC
same,PLATELET COUNT,[3],1386.67 x10E3/uL
same,ALANINE AMINOTRANSFERASE,[3],49 u/L
same,ALBUMIN,[3],4.27 G/DL
same,ALKALINE PHOSPHATASE,[3],402.67 u/L
same,ASPARTATE AMINOTRANSFERASE,[3],93 u/L
same,BLOOD UREA NITROGEN,[3],14.67 mg/dL
same,CARBON DIOXIDE,[3],26.67 mmol/L
same,CHLORIDE,[3],102.67 MEQ/L
same,CHOLESTEROL,[3],65 mg/dL
same,CREATINE PHOSPHOKINASE,[3],421.33 u/L
same,CREATININE,[3],0.18 mg/dL
same,GLUCOSE,[3],152.67 mg/dL
same,LIPASE,[3],10 u/L
same,PHOSPHORUS,[3],14.3 mg/dL
same,POTASSIUM,[3],6.6 MEQ/L
same,SODIUM,[3],145.83 MEQ/L
same,TOTAL BILIRUBIN,[3],0.17 mg/dL
same,TOTAL PROTEIN,[3],5.8 G/DL
